“And” between values parts separate entries of the source, which are not always exact repeats. Identical values can stand only once. Like-named read-outs stand apart in the source and are kept apart here. Marks after values point to notes of the source that are not given here.
How the values were obtained:
[1] = system: spermatozoa in rabbit seminal liquid; test: Effect of sodium D-aspartate and sodium D-/L-aspartate mixtures on number and motility of spermatozoa in rabbit seminal liquid; format: in vivo; settings: rabbits, 0.25 g/day total mixed with food, 20 days
Text: The study has been carried out on two groups of rabbits (10 rabbits for each group) in order to test the effect of sodium D-aspartate and of the sodium D-aspartate in combination with a determined amount of sodium L-aspartate on the quality of seminal liquid, i.e. on number of spermatozoa/ml and on the progressive quick motility thereof.
The experiment involved the ingestion by a group of 10 male adult rabbits, 6 month old, of an amount of sodium D-aspartate corresponding to 0.250 g daily ([…] of body weight) over 20 days. Practically, sodium D-aspartate was mixed with food in such amount that the food daily ingested by the rabbit contained 0.250 g of sodium D-aspartate. In the same way, in a second experiment carried out on another group of 10 same age male adult rabbits, a mixture consisting of 0.2 g of sodium D-aspartate and 0,05 g of sodium L-aspartate (80% D-Asp: 20% L-Asp) was administered. Before the start of the experiment and at the end of drug ingestion lasting 20 days, from every rabbit a sperm sample obtained by stimulation using an artificial vagina has been collected and the total number of spermatozoa/ml of ejaculate and motility thereof have been determined.
The number of the spermatozoa and progressive quick motility are determined according to (World Health Organization) WHO guidelines using a Makler Chamber for the count (Sefi Medtstl Instrument, Haifa, Israel) and in the same place the progressive quick motility has been determined. The rabbit semen was 1:10 diluted in an iso-osmotic solution due to excessive concentration.
The study involved the administration of a mixture consisting of 0.125 g of sodium D-aspartate+0,125 g of sodium L-aspartate (D-Asp 50%: L-Asp 50%) to a group of 10 rabbits according to procedure of Example 2. […] In this case the production of the number of spermatozoa was increased by 25% and motility by 55% compared to controls showing that also in this case an improvement compared to D-aspartate alone was obtained but it was lower than mixture consisting of 80% D-aspartate and 20% L-aspartate.

[2] = system: LH (luteinizing hormone) in human serum; settings: men 25-40 years, 30 days
Text: (§4) The study involves the oral ingestion (after breakfast or main meal) by a group of 10 25-40 year old people of a daily dose consisting of 3.12 g of sodium D-aspartate (19,2 μmole of sodium D-aspartate; 0.27 μmol/kg of body weight for a 70 kg person) over 30 days. Another group of 10 25-40 year old people (after breakfast or main meal) ingested a daily dose of a mixture consisting of 2.49 g of sodium D-aspartate and 0.63 g of sodium L-aspartate (80% sodium D-aspartate and 20% sodium L-aspartate) for the same period.
(§5) LH and testosterone hormonal assays have been carried out using specific commercial kits for clinical chemical use.

[3] = system: testosterone in human serum; settings: men 25-40 years, oral 3.12 g/day total, 30 days
Text: as §4, §5

[4] = system: spermatozoa in human seminal liquid; test: Number and quality of spermatozoa in human seminal liquid after oral sodium D-aspartate or sodium D-/L-aspartate mixtures; format: in vivo; settings: men 25-40 years, oral 3.12 g/day total, 30 days
Text: (§1) Seminal liquid has been collected through masturbation after 3-5 abstinence days. The number of the spermatozoa and progressive quick motility thereof have been determined according to (World Health Organization) WHO guidelines using a Makler Chamber for the count (Sefi Medtstl Instrument, Haifa, Israel) and in the same place the progressive quick motility has been determined.
It is to be pointed out that this study has been carried out on selected subjects having a number of spermatozoa in seminal liquid from 15.000.000 to 20.000.000/ml, that is minimum threshold values within normal range. […] In this case therefore the action of D-aspartate stimulates their maturation to vital spermatozoa.

[5] = system: luteinizing hormone (LH), growth hormone, prolactin (PRL) and testosterone in blood; settings: rat, orally administered; cited from earlier work
[6] = system: LH and testosterone values and spermatozoon number and motility; settings: man, daily one or two 3 g doses, at least 30 days; cited from earlier work
[7] = system: testosterone in human serum; test: Testosterone in human serum after oral D-aspartic/L-aspartic acid; format: in vivo; settings: men, L-aspartic acid alone
Text: (§2) Like ingestion procedure, the D-aspartic and L-aspartic acid mixture preferably was dispersed in a half filled glass containing water or fresh or stored fruit juice (orange, apple, pear, etc.), then stirred and ingested.
(§3) Before the start of the study and after 20 days of treatment in the morning from each subject blood has been collected and the concentration of LH (luteinizing hormone) and testosterone has been determined in serum obtained from said blood. Moreover, from every subject also the seminal liquid has been collected for which quick progressive motility together with total number spermatozoa/ml of sperm has been determined.

[8] = system: spermatozoa in human seminal liquid; test: Number and quick progressive motility of spermatozoa in human seminal liquid after oral D-aspartic/L-aspartic acid; format: in vivo; settings: men
Text: as §2, §3
as §1, with “The seminal” for “Seminal”, “by” for “through”, “motility” for “motility thereof”

[9] = system: LH (luteinizing hormone) in human serum; test: LH in human serum after oral D-aspartic/L-aspartic acid; format: in vivo; settings: men, L-aspartic acid alone
Text: as §2, §3

[10] = system: spermatozoa in rabbit seminal liquid; test: Effect of feed containing D-aspartic/L-aspartic acid on number and motility of spermatozoa in rabbit seminal liquid; format: in vivo; settings: rabbits, about 1.14 g/day total in feed, 20 days
Text: The study has been carried out on two groups of rabbits. […] A same age second group of 10 rabbits representing a control group (or placebo) was fed eat for 20 days with same type food as above prepared, but without the addition of D-aspartic and L-aspartic acids mixture. The experiments have been carried out in a rabbit breeding farm (“Potenza Breeders' Association”, Potenza, Italy). Before the start and at the end of the experiment from each rabbit a sperm sample has been collected by stimulation with an artificial vagina (see paper: “G. Macchia et al., DL-aspartic acid administration improve semen quality in rabbit bucks, published on “Animal Reproduction Science, 118, 337-343, 2010) and the total number of spermatozoa/ml of ejaculate and motility thereof have been determined.
The number of the spermatozoa and progressive quick motility are determined according to (World Health Organization) WHO guidelines using a Makler Chamber for the count (Sefi Medtstl Instrument, Haifa, Israel) and in the same place the progressive quick motility has been determined.
Also this study has been carried out on two groups of same age and weight rabbits as used for previous study. […] Also in this case seminal liquid has been collected before and after the experiment and then examined for spermatozoon number and motility thereof.
Also this study carried out on rabbits has been carried out in the same way as previous ones. […] Also in this case total amount of D-Asp+L-Asp ingested daily by rabbits was about 1.140 g.

For N[C@H](CC(=O)[O-])C(=O)[O-].[Na+].[Na+] [100% D-Aspartate, sodium D-aspartate], the “% increment of number of spermatozoa vs before the treatment” value [1] was 19.3%, the “% increment of quick progressive spermatozoa vs before the treatment” value [1] was 37% and the “Immobile spermatozoa after ingestion (on 100 base)” value [1] was 18%*. The “Quick progressive spermatozoa after ingestion (on 100 base)” value [1] was 55%*, the “Slow spermatozoa after ingestion (on 100 base)” value [1] was 27%* and the “% increment of quick progressive spermatozoa vs before the treatment” value ([1]; listed as D-aspartate) was 37%. For the same compound, the “Quick progressive spermatozoa after ingestion (on 100 base)” value ([1]; listed as D-aspartate) was 55%, the “% increment of number of spermatozoa vs before the treatment” value ([1]; listed as sodium D-aspartate) was 19,3% and the “% increment of quick progressive spermatozoa vs before the treatment” value ([1]; listed as sodium D-aspartate) was 37%. For the same compound, the “Quick progressive spermatozoa after ingestion (on 100 base)” value ([1]; listed as sodium D-aspartate) was 55%, the “LH % increment vs before the treatment” value ([2]; oral 3.12 g/day total) was “+25.6%” and the LH after ingestion ([2]; oral 3.12 g/day total, average of 10) was 5.4 mIU/ml serum. For the same compound, the “LH % increment vs before the treatment” value ([2]; oral 3.12 g/day total, listed as sodium D-aspartate) was 25,6%, the “LH haematic value after ingestion” value ([2]; oral 3.12 g/day) was 5.4 mUI/ml and the “Testosterone % increment vs before the treatment” value [3] was “+31.2%”. The Testosterone after ingestion ([3]; average of 10) was 6.3 ng/ml serum, the “Testosterone % increment vs before the treatment” value ([3]; listed as sodium D-aspartate) was 31.2% and the “% increase of quick progressive spermatozoa vs before the treatment” value [4] was “+28%”. The “% increase of total spermatozoa vs before the treatment” value [4] was “+27%”, the “Immobile spermatozoa after ingestion (on base 100)” value [4] was 30%* and the “Quick progressive spermatozoa after ingestion (on base 100)” value [4] was 45%*. The “Slow spermatozoa after ingestion (on base 100)” value [4] was 25%*, the “% increase of quick progressive spermatozoa vs before the treatment” value ([4]; listed as sodium D-aspartate) was 28% and the “% increase of total spermatozoa vs before the treatment” value ([4]; listed as sodium D-aspartate) was 27%.
For N[C@H](CC(=O)O)C(=O)O [D-aspartic acid], the “Blood LH, growth hormone, prolactin and testosterone” value [5] is given as “temporary increase” and the “LH and testosterone values and spermatozoon number and motility” value [6] is given as “induced an increase”.
With N[C@@H](CC(=O)O)C(=O)O [L-aspartic acid] the “Testosterone haematic hormone before and after therapy” value [7] was “unaltered”, the “Quick progressive motility of spermatozoa after treatment, individual subjects” value ([8]; % progressive quick of 100 observed spermatozoa, one line per subject 1°-10°) was 25% and 19% and 35% (2×) and 18% and 40% and 45% and 22% and 27% and 39% and the “Average % increment of quick progressive motility” value ([8]; average ± SD of 10 subjects) was “+35.6% ± 9.05”. For the same compound, the “% increment of number of spermatozoa, individual subjects” value ([8]; one line per subject 1°-10°) was 26% and 40% and 20% and 33% and 36% and 15% and 13% (2×) and 19% and 12%, the “% increment of quick progressive motility, individual subjects” value ([8]; one line per subject 1°-10°) was 38% and 26% and 45% and 50% and 25% (2×) and 28% and 37% and 42% and 40% and the “Number of spermatozoa in seminal liquid after treatment, individual subjects” value ([8]; one line per subject 1°-10° (20 days for the 80/20 mixture)) was 8 × 10^6 and 35 × 10^6 and 6 × 10^6 and 20 × 10^6 and 41 × 10^6 and 3 × 10^6 and 34 × 10^6 and 51 × 10^6 and 25 × 10^6 and 18 × 10^6. The “LH haematic hormone before and after therapy” value [9] was “unaltered”, the “Immobile after treatment (on base 100)” value [10] was 29% and the “Quick motility after treatment (on base 100)” value [10] was 41%. For the same compound, the “Slow motility after treatment (on base 100)” value [10] was 30%.

Reference: US20120095100A1, “USE OF A COMBINATION OF D-ASPARTIC AND L-ASPARTIC ACIDS OR SALTS THEREOF FOR THE TREATMENT OF MALE INFERTILITY” (MERCK SERONO S.P.A., priority 2009, published 2012)
